# Legend:
# Type in all cases: cell-based, human
# p-Ub (S65) [1] = assay: Western blot, p-Ub (S65) in WT fibroblasts; conditions: 10 μM FCCP, 2 h
# Description: (§1) FIG. 7. ULKTACs restore mitophagic activity in PINK-null PD patient fibroblasts (A) Western blot of patient derived fibroblasts, healthy control vs. PINK null, treated with […] NZ-65 or NZ-66 for 18 h or 10 μM FCCP for 2 h and probed for total Ub, pUb(S65), Mfn2 and b-Actin with quantification for the changes in the pUB (S65): Total Ub ratio shown in (B) and Mfn2 (C), respectively normalised to b-Actin. (D) Representative immunofluorescence of primary human fibroblasts isolated from wild type controls and PINK-null Parkinson's disease patients, treated with 10 µM FCCP, 1 μM NZ-65 or 1 μM NZ-66 and immunostained for TOM20 and ULK1; counterstained with Alexa 488 and Alexa 568 antibodies. Nuclei stained with Hoechst 33342. The quantification of these immunofluorescence experiments is shown in (E). Data shown are mean±SEM, n=3, *** p<0.001, two-way ANOVA with Tukey's multiple comparisons test.
# (§2) Cells were homogenised in protein lysis buffer consisting of 0.1 M Tris pH 8.0, 0.1 M NaCl, 5% glycerol, IGEPAL® CA-630 (#18896. Sigma-Aldrich) and 5 mM EDTA, 0.1 M N-ethyl maleimide (ThermoFisher, #23030) and protease inhibitor (Cell Signalling Technologies, #5871). Protein concentrations were determined using the BCA assay to ensure equal loading. […] The membranes were immunoblotted with primary antibodies, overnight at 4° C. […]
# p-Ub (S65) [2] = assay: Western blot, p-Ub (S65) in PINK-null PD patient fibroblasts
# Description: as §1, §2
# c-MYC controlled genes = assay: RT-qPCR of c-MYC controlled genes in CAL51 cells; conditions: 100 nM, 72 hours
# Description: FIG. 11. RT-qPCR quantification of expression of c-MYC controlled genes in CAL51 triple negative breast cancer cell line treated with DMSO, 100 nM (+)-JQ1 or 100 nM NZ-147 for 72 hours. […] MDM2 (A) and CCNE (B) are controlled by cMYC in oncogenic settings, PAICS (C) is a putative target of c-MYC, and eIF4E (D) is a known target of cMYC. n=3, *p<0.05, ** p<0.01, *** p<0.001.
# RNA was extracted with the Qiagen RNeasy Mini kit following manufacturers protocol. RT-qPCR SYBR assay was carried out with Mesa Blue following manufacturers instructions, 80 ng RNA per well, experimental triplicates, BioRad CTX Connect qPCR machine. RNA levels were normalized to GAPDH. Experiments were done in biological triplicate. The primers used were as follows:
# The levels of c-MYC controlled genes (determined using RT-qPCR) in CAL51 triple negative breast cancer cell line after treatment with DMSO, 100 nM (+)-JQ1 or 100 nM NZ-147 for 72 hours is shown in FIG. 11. In particular MDM2 (FIG. 11A) and CCNE (FIG. 11B) are controlled by cMYC in oncogenic settings, PAICS (FIG. 11C) is a putative target of c-MYC, and elF4E (FIG. 11D) is a known target of c-MYC.
# H1299 cells = assay: Cell viability assay (CellTiter Glo), H1299; conditions: H1299, increasing concentrations
# Description: (§3) A549 and H1299 cells were seeded in OptiPlate-384 well plates and treated with increasing concentrations of (+)-JQ1 or NZ-147 from 0 μM to 10 µM in Example 8 and with increasing concentrations of NZ-175 from 0 µM to 10 µM in Example 9. Cells were treated for 120 h before using the luciferase based CellTiter Glo assay (Promega) to measure cell viability.
# (§4) Cell viability assay was performed in A549 and H1299 cells, which were treated with different concentrations of (+)-JQ1 or NZ-147 at 100 nM for 72 hours (FIG. 10B).
# (§5) Cell viability assay was performed in A549 and H1299 cells, which were treated with different concentrations of NZ-147 at 100 nM for 72 hours (FIG. 16B).
# A549 cells = assay: Cell viability assay (CellTiter Glo), A549; conditions: A549, increasing concentrations
# Description: as §3, §4, §5
# pRPA (S4/S8) = assay: Western blot, pRPA (S4/S8) in RPE1-hTERT-cMYC-ER cells (replication stress); conditions: 72 h; NZ-175 at 100 nM with 4-OHT
# Description: (§6) FIG. 15. NZ-175 rescues oncogenic c-MYC induced replication stress (100 nM, 72 h) (A) Western blot of RPE1-hTERT-cMYC-ER treated with 4-OHT and/or NZ-175 at 100 nM for 72 hours. 4-OHT treatment simulates oncogenic c-MYC-induced replication stress, observed by upregulation of phospho-CHK1 (S345), pRPA (S4/S8) and γH2AX. […] Quantification of blot is shown for pCHK1 […] (B), pRPA (S4/S8) (C), and YH2AX (D). n=3, mean±SEM, *p<0.05, ** p<0.01, *** p<0.001.
# as §2
# (§7) Membranes were then incubated with horseradish peroxidase (HRP)-conjugated secondary antibodies (Rabbit #7074 and Mouse #7076) purchased from Cell Signalling Technologies for 1 hour and the HRP signal was detected using EZ-ECL Enhanced Chemiluminescence Detection Kit for HRP (#20-500-500, Sartorius), and imaged with an Alliance Q9 Advanced (UVITec). […]
# (§8) To see if NZ-175 could rescue this phenotype, RPE1-hTERT-cMYC-ER cells treated with 4-OHT and/or 100 nM NZ-175 for 72 h were analysed by Western blotting (FIG. 15A). […]
# phospho-CHK1 (S345) = assay: Western blot, phospho-CHK1 in RPE1-hTERT-cMYC-ER cells (replication stress); conditions: 72 h; NZ-175 at 100 nM with 4-OHT
# Description: as §6, §2, §7, §8
# γH2AX = assay: Western blot, γH2AX in RPE1-hTERT-cMYC-ER cells (replication stress); conditions: 72 h; NZ-175 at 100 nM with 4-OHT
# Description: as §6, §2, §7, §8
compound,measurement,setting,value
N#CC(C#N)=NNc1ccc(OC(F)(F)F)cc1 [FCCP],p-Ub (S65) levels,p-Ub (S65) [1],substantial increase in p-Ub (S65) levels
same,p-Ub (S65) levels,p-Ub (S65) [2],does not occur in the PINK-null cells
"Cc1sc2c(c1C)C(c1ccc(Cl)cc1)=N[C@@H](CC(=O)OC(C)(C)C)c1nnc(C)n1-2 [(+)-JQ1, reference compound]","expression of c-MYC controlled genes (MDM2, CCNE, PAICS, eIF4E)",c-MYC controlled genes,reduces the expression of c-MYC controlled genes
same,percentage of live cells,H1299 cells,dose-dependent decrease in the percentage of live cells
same,percentage of live cells,A549 cells,dose-dependent decrease in the percentage of live cells
"4-hydroxytamoxifen [4-OHT, reference compound]","pRPA (S4/S8), replication stress",pRPA (S4/S8),upregulation
same,"phospho-CHK1 (S345), replication stress",phospho-CHK1 (S345),upregulation
same,"γH2AX, replication stress",γH2AX,upregulation

# From US20260335323A1, “CHIMERIC MOLECULE” (UCL Business Ltd, priority 2023, published 2026)
